Laboratory results taken from ChEMBL document CHEMBL5291721, “A preclinical secondary pharmacology resource illuminates target-adverse drug reaction associations of marketed drugs” (Nat Commun, 2023).

Experiments:
Androgen receptor = biological target: T1, Androgen receptor (Rattus norvegicus, UniProt P15207); assay type: functional
T1 sequence (P15207 whole entry): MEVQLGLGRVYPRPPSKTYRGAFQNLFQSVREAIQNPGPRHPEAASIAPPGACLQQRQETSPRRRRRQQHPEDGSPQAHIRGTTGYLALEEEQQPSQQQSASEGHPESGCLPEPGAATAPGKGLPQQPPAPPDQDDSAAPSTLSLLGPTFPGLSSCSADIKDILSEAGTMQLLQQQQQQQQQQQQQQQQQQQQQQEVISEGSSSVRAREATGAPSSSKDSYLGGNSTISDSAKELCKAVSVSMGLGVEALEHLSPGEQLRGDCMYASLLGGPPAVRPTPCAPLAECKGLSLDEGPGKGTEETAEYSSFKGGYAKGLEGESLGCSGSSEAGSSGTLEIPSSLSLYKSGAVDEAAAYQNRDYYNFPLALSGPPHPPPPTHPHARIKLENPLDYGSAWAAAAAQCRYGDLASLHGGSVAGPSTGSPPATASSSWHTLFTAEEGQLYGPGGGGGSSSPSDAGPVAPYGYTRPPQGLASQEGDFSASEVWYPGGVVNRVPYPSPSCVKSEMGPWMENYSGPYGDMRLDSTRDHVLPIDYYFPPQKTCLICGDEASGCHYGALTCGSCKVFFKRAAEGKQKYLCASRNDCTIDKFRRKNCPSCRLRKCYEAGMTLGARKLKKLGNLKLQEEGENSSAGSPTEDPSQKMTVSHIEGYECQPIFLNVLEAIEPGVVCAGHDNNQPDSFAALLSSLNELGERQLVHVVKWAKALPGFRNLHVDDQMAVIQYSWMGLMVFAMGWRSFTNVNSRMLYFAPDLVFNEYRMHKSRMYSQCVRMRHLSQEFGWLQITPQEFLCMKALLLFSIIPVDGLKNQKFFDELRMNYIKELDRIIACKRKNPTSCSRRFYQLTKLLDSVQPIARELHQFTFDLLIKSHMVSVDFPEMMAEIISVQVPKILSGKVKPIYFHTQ

[1] = biological target: T2, Gamma-aminobutyric acid receptor subunit alpha-1/alpha-2/beta-2/gamma-2 (Homo sapiens, UniProt P14867+P18507+P47869+P47870); assay type: functional, cell-based
[2] = biological target: T2, Gamma-aminobutyric acid receptor subunit alpha-1/alpha-2/beta-2/gamma-2; assay type: functional, cell-based; remark: listed apart in the source
[3] = biological target: T3, Peroxisome proliferator-activated receptor gamma (Homo sapiens, UniProt P37231); assay type: functional
T3 sequence (P37231 whole entry): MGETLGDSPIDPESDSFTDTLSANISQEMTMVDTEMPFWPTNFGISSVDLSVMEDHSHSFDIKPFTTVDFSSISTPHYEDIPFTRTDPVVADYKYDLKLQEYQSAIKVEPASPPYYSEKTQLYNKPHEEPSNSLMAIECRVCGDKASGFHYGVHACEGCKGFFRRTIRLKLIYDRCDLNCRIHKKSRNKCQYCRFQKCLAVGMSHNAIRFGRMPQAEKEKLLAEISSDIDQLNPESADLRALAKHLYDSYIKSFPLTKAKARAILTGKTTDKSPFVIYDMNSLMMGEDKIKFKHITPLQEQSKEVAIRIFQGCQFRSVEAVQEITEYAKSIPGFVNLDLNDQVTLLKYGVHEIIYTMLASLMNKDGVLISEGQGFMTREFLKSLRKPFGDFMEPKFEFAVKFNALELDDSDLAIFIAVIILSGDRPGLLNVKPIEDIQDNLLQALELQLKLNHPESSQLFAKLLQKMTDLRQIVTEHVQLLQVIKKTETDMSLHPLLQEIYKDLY

[4] = biological target: T3, Peroxisome proliferator-activated receptor gamma; assay type: functional; remark: listed apart in the source
Histamine H1 receptor = Histamine H1 receptor (Homo sapiens, UniProt P35367); assay type: functional, cell-based
[5] = biological target: T4, Muscarinic acetylcholine receptor M2 (Homo sapiens, UniProt P08172)
T4 sequence (P08172 whole entry): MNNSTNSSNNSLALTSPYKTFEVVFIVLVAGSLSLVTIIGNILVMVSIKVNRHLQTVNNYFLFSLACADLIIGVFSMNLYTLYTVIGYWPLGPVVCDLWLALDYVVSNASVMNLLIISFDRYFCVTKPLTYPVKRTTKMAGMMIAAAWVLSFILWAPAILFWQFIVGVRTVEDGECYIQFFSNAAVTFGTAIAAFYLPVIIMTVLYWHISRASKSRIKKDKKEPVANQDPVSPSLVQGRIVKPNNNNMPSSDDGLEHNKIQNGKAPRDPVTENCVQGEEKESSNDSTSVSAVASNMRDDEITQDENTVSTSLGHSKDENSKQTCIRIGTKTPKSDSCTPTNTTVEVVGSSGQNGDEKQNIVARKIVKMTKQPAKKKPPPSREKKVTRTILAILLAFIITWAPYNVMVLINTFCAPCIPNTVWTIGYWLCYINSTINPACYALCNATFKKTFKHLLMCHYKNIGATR

D(1A) dopamine receptor = D(1A) dopamine receptor (Homo sapiens, UniProt P21728)
Glucagon receptor = Glucagon receptor (Homo sapiens, UniProt P47871)
[6] = biological target: Beta-3 adrenergic receptor (Homo sapiens, UniProt P13945)
Estrogen receptor beta = Estrogen receptor beta (Homo sapiens, UniProt Q92731)
[7] = biological target: 5-hydroxytryptamine receptor 2B (Homo sapiens, UniProt P41595)
[8] = biological target: Voltage-dependent N-type calcium channel subunit alpha-1B (Rattus norvegicus, UniProt Q02294); assay type: functional
Histamine H2 receptor = Histamine H2 receptor (Homo sapiens, UniProt P25021)
Substance-P receptor = Substance-P receptor (Homo sapiens, UniProt P25103)
Further: assay procedure not described here.

T2 sequence (P14867 whole entry): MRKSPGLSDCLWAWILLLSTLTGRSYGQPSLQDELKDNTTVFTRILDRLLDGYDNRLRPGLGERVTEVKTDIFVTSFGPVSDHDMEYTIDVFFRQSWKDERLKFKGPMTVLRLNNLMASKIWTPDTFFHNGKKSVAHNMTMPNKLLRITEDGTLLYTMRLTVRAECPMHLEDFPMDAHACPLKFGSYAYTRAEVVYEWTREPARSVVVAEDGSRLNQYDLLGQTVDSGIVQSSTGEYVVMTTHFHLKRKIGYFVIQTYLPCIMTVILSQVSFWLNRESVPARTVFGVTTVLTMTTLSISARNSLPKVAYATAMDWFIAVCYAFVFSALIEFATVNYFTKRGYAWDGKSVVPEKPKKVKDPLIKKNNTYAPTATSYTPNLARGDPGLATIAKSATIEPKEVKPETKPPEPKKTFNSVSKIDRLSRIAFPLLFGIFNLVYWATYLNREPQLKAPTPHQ
T2 sequence (P47870 whole entry): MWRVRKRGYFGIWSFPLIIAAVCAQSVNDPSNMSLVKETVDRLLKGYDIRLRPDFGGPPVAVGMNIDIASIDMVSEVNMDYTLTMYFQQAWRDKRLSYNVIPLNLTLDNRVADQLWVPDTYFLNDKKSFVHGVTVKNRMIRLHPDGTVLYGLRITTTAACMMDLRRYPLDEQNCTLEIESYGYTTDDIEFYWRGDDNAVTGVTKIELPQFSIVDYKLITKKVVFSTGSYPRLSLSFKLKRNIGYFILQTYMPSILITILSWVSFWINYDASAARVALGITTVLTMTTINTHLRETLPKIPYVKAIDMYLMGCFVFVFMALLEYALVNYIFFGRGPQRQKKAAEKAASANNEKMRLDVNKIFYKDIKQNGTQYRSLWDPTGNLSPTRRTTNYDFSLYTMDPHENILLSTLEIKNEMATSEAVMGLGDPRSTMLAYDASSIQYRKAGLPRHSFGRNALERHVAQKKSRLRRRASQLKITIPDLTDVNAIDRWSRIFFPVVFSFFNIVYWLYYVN
T2 sequence (P18507 whole entry): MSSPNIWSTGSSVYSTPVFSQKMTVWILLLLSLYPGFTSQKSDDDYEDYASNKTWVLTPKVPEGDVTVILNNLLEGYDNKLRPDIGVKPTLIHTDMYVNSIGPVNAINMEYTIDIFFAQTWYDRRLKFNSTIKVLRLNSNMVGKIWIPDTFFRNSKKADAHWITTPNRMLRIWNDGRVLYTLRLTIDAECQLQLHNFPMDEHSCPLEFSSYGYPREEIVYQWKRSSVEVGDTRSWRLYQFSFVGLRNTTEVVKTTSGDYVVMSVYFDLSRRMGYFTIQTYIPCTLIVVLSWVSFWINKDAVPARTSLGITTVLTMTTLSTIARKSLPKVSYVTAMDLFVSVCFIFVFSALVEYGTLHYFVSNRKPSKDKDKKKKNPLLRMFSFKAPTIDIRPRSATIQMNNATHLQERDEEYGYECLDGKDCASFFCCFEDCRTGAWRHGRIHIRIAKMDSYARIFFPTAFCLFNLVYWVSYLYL
T2 sequence (P47869 whole entry): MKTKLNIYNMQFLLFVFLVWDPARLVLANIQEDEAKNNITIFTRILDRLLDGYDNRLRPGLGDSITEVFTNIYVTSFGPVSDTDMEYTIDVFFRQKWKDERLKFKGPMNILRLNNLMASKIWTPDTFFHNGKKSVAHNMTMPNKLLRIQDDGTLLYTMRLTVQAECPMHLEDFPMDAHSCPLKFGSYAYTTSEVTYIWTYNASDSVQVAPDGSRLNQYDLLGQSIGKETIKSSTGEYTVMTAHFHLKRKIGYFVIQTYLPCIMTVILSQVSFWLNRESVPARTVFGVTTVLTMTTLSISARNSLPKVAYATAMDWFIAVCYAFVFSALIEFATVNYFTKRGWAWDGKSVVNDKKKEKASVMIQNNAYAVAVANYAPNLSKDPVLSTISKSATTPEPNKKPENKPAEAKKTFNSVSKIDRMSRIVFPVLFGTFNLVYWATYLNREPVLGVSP
5-hydroxytryptamine receptor 2B, sequence (P41595 whole entry): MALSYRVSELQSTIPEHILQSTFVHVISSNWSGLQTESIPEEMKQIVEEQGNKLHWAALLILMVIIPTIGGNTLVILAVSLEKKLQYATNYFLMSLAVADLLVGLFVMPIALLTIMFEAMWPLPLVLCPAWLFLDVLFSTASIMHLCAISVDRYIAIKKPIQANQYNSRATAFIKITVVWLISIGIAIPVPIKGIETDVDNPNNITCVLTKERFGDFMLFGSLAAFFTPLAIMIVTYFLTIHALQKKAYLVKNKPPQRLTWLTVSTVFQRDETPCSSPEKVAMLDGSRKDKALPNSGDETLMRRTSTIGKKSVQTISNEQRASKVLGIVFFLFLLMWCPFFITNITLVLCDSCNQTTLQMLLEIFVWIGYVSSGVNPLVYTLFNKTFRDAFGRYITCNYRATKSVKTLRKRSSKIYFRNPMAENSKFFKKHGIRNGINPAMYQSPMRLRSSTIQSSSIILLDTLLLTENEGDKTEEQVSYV
D(1A) dopamine receptor, sequence (P21728 whole entry): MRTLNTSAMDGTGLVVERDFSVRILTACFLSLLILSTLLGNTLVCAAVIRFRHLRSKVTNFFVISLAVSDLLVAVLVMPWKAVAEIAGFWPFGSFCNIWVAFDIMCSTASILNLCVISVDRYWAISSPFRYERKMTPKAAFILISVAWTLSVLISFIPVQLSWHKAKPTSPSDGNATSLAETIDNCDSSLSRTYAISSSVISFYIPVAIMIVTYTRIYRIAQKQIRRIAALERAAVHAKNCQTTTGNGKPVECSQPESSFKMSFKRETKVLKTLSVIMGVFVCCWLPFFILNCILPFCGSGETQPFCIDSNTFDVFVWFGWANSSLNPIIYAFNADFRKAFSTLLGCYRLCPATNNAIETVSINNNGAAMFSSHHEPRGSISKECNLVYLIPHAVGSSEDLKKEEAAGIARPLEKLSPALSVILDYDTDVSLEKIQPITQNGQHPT
Estrogen receptor beta, sequence (Q92731 whole entry): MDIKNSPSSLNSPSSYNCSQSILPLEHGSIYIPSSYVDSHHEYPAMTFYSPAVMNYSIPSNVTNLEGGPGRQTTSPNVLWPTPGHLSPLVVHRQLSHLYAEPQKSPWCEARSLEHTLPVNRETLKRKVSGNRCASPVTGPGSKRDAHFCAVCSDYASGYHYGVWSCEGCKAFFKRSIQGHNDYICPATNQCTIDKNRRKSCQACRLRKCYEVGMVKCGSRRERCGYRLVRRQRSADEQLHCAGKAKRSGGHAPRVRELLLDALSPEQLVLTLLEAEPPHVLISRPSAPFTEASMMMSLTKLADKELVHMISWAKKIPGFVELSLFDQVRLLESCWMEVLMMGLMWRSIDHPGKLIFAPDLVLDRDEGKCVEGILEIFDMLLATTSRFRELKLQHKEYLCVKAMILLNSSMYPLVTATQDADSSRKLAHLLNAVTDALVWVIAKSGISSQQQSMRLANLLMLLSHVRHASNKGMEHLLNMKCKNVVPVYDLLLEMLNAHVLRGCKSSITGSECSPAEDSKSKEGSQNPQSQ
Histamine H2 receptor, sequence (P25021 whole entry): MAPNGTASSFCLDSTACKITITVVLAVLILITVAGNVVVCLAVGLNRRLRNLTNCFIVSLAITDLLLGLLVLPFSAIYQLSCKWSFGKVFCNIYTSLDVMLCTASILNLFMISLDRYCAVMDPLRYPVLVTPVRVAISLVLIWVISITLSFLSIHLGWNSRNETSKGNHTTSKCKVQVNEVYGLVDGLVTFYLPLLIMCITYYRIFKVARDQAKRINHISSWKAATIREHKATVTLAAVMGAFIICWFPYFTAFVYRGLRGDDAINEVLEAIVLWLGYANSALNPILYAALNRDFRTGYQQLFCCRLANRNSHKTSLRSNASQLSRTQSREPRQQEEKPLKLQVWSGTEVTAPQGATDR
Histamine H1 receptor, sequence (P35367 whole entry): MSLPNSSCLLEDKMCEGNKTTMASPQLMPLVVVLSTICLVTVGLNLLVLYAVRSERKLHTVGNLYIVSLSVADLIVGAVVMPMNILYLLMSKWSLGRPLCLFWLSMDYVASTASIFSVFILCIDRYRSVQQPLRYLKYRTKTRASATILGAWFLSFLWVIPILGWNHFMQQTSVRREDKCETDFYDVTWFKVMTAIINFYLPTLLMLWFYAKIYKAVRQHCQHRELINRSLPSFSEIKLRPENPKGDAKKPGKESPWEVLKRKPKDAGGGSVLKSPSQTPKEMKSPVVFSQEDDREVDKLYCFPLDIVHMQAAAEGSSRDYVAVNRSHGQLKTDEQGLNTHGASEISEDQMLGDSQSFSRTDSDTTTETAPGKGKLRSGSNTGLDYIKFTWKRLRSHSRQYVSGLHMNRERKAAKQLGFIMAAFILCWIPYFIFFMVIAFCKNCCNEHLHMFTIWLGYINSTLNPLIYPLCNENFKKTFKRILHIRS
Glucagon receptor, sequence (P47871 whole entry): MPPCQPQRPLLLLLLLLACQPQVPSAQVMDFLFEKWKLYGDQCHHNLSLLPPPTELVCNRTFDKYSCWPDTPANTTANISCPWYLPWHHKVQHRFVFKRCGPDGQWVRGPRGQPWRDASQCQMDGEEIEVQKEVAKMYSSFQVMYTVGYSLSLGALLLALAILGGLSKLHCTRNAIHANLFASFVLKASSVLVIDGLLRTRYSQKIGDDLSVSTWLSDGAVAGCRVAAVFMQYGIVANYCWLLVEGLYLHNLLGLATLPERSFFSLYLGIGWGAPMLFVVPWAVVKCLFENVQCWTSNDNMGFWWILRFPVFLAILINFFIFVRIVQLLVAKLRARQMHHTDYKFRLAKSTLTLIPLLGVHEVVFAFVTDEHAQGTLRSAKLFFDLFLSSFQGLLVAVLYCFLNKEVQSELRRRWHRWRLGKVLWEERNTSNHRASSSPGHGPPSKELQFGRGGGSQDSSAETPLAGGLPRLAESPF

Structure (SMILES) | AC50 (Androgen receptor) [µM] | AC50 [1] [µM] | AC50 [2] [µM] | AC50 [3] [µM] | AC50 [4] [µM] | other results
N#Cc1ccccc1-c1cc(-c2ccccn2)cn(-c2ccccc2)c1=O | > 30 | – | – | – | – | –
COc1ccc(/C=C/C(=O)Nc2ccccc2C(=O)O)cc1OC | > 30 | – | – | – | – | –
C=C[C@@]1(C)CC(=O)[C@]2(O)[C@@]3(C)[C@@H](O)CCC(C)(C)[C@@H]3[C@H](OC(=O)CCN(C)C)[C@H](OC(C)=O)[C@@]2(C)O1 | > 30 | – | – | – | – | –
Nc1ccc(C(=O)O)c(O)c1 [AMINOSALICYLIC ACID] | > 30 | – | – | – | – | –
O=C(CCCN1CCC(n2c(O)nc3ccccc32)CC1)c1ccc(F)cc1 [BENPERIDOL] | – | 20 | > 30 | – | – | –
COc1cc(OC)c(C(=O)CCCN2CCCC2)c(OC)c1 [BUFLOMEDIL] | > 30 | – | – | – | – | –
CS(=O)(=O)OCCCCOS(C)(=O)=O [BUSULFAN] | – | > 30 | – | > 30 | > 30 | –
CCCCC1(CC)C(=O)NC(=O)NC1=O [BUTETHAL] | > 30 | > 30 | > 30 | > 30 | > 30 | –
C=CC1=C(C(=O)O)N2C(=O)[C@@H](NC(=O)/C(=N\OCC(=O)O)c3csc(N)n3)[C@H]2SC1 [CEFIXIME] | – | – | – | > 30 | > 30 | –
CO[C@@]1(NC(=O)Cc2cccs2)C(=O)N2C(C(=O)O)=C(COC(N)=O)CS[C@@H]21 [CEFOXITIN] | – | > 30 | – | > 30 | 11 | –
CCN(CC)CCOC(=O)c1ccc(N)cc1Cl [CHLOROPROCAINE] | – | > 30 | > 30 | > 30 | > 30 | –
COCCOC(=O)C1=C(C)NC(C)=C(C(=O)OC/C=C/c2ccccc2)C1c1cccc([N+](=O)[O-])c1 (centres undefined) [CILNIDIPINE] | – | > 30 | > 30 | – | – | AC50 (Histamine H1 receptor): > 30 µM
CC(C)(C)NCC(O)c1cc(Cl)c(N)c(Cl)c1 (centres undefined) [CLENBUTEROL] | > 30 | > 30 | – | – | – | –
CCC(C)(Oc1ccc(C2(c3ccc(OC(C)(CC)C(=O)O)cc3)CCCCC2)cc1)C(=O)O (centres undefined) [CLINOFIBRATE] | > 30 | – | – | – | – | –
COc1cccc2c1C(=O)c1c(O)c3c(c(O)c1C2=O)C[C@@](O)(C(C)=O)C[C@@H]3O[C@H]1C[C@H](N)[C@H](O)[C@H](C)O1 [DAUNORUBICIN] | – | – | – | > 30 | > 10 | –
N[C@H](Cc1cc(I)c(Oc2cc(I)c(O)c(I)c2)c(I)c1)C(=O)O [DEXTROTHYROXINE] | – | – | – | – | – | AC50 [5]: > 10 µM; AC50 (D(1A) dopamine receptor): > 10 µM; AC50 (Glucagon receptor): > 30 µM; AC50 [6]: > 30 µM; AC50 (Estrogen receptor beta): > 30 µM; AC50 [7]: > 10 µM; AC50 [8]: > 10 µM; AC50 (Histamine H2 receptor): > 10 µM
CCCCC[C@H](O)/C=C/[C@H]1[C@H](O)CC(=O)[C@@H]1C/C=C\CCCC(=O)O [DINOPROSTONE] | 23 | – | – | – | – | AC50 (D(1A) dopamine receptor): > 30 µM
COC(=O)N[C@@H](C)CNc1nccc(-c2cn(C(C)C)nc2-c2cc(Cl)cc(NS(C)(=O)=O)c2F)n1 [ENCORAFENIB] | > 30 | – | – | – | – | –
CC(=O)OCC(CCn1cnc2cnc(N)nc21)COC(C)=O [FAMCICLOVIR] | – | – | – | – | – | AC50 [5]: > 10 µM; AC50 (D(1A) dopamine receptor): > 10 µM; AC50 (Glucagon receptor): > 30 µM; AC50 [6]: > 30 µM; AC50 (Estrogen receptor beta): > 30 µM; AC50 [7]: > 10 µM; AC50 (Substance-P receptor): > 10 µM; AC50 [8]: > 10 µM; AC50 (Histamine H2 receptor): > 10 µM

Structure (SMILES) | AC50 (Androgen receptor) [µM] | AC50 [1] [µM] | AC50 [2] [µM] | AC50 [3] [µM] | AC50 [4] [µM] | other results
O=C(O)c1ccccc1Nc1cccc(C(F)(F)F)c1 [FLUFENAMIC ACID] | – | – | – | – | – | AC50 (Glucagon receptor): > 30 µM; AC50 [6]: > 30 µM; AC50 (Estrogen receptor beta): > 30 µM; AC50 [8]: > 10 µM
O=C(O)c1ccccc1OP(=O)(O)O [FOSFOSAL] | – | > 30 | > 30 | > 30 | > 30 | –
CCCCCCOC(=O)CCC(=O)CN [HEXAMINOLEVULINATE] | > 30 | – | – | – | – | –
Nc1nc2c(c(=O)[nH]1)N(C=O)C(CNc1ccc(C(=O)N[C@@H](CCC(=O)O)C(=O)O)cc1)CN2 (some centres undefined) [LEUCOVORIN] | > 30 | > 30 | – | > 30 | > 30 | –
CCCC[C@H](C)C[C@H](O)/C=C/[C@H]1[C@H](O)CC(=O)[C@@H]1CCCC/C=C/C(=O)O [LIMAPROST] | – | > 30 | > 30 | > 30 | > 30 | AC50 (Histamine H1 receptor): > 30 µM
CC#CCn1c(N2CCC[C@@H](N)C2)nc2c1c(=O)n(Cc1nc(C)c3ccccc3n1)c(=O)n2C [LINAGLIPTIN] | – | – | – | – | – | AC50 [5]: > 10 µM; AC50 (D(1A) dopamine receptor): > 10 µM; AC50 [6]: > 30 µM; AC50 [7]: > 10 µM; AC50 [8]: > 10 µM; AC50 (Histamine H2 receptor): 12.3 µM
Cc1ccc(NC(=O)C2(c3ccc4c(c3)OC(F)(F)O4)CC2)nc1-c1cccc(C(=O)O)c1 [LUMACAFTOR] | – | – | > 30 | > 30 | > 30 | AC50 (Histamine H1 receptor): > 30 µM
CC(C)OC(=O)C(C(=O)OC(C)C)=C1SC=CS1 [MALOTILATE] | > 30 | – | – | – | – | –
CCn1cc(C(=O)O)c(=O)c2cc(F)c(N3CCN(C)CC3)cc21 [PEFLOXACIN] | – | > 30 | – | > 30 | > 30 | –
Cc1ccc(=O)n(-c2ccccc2)c1 [PIRFENIDONE] | – | > 30 | > 30 | > 30 | > 30 | AC50 (Histamine H1 receptor): > 30 µM
C[n+]1ccccc1/C=N/O [PRALIDOXIME] | – | > 30 | – | – | – | –
CCCNC(C)C(=O)Nc1ccccc1C (centres undefined) [PRILOCAINE] | – | > 30 | – | > 30 | > 30 | –
CCN(CC)CC(=O)Oc1ccc(NC(C)=O)cc1 [PROPACETAMOL] | > 30 | – | – | – | – | –
Cc1ccc2c(-c3ccccc3)nc(=O)n(C(C)C)c2c1 [PROQUAZONE] | – | > 30 | > 30 | – | – | AC50 (Histamine H1 receptor): > 30 µM
Cc1cc2nc3c(=O)[nH]c(=O)nc-3n(C[C@H](O)[C@H](O)[C@H](O)COP(=O)(O)O)c2cc1C [RIBOFLAVIN 5'-PHOSPHATE] | > 3 | – | – | – | – | –
CN1CCN(c2c(F)cc3c(=O)c(C(=O)O)cn4c3c2SCC4)CC1 [RUFLOXACIN] | – | > 30 | > 30 | – | – | AC50 (Histamine H1 receptor): > 30 µM
CN1c2ccccc2C(NCCCCCCC(=O)O)c2ccc(Cl)cc2S1(=O)=O (centres undefined) [TIANEPTINE] | – | > 30 | > 30 | – | – | AC50 (Histamine H1 receptor): > 30 µM
COc1cc2c(Nc3ccc(Br)cc3F)ncnc2cc1OCC1CCN(C)CC1 [VANDETANIB] | – | > 30 | > 30 | > 30 | > 30 | –
COc1ccc(C(CN(C)C)C2(O)CCCCC2)cc1 (centres undefined) [VENLAFAXINE] | – | – | – | – | – | AC50 [8]: > 10 µM
